# Measurements as given in ChEMBL document CHEMBL1144455, “A small molecule-kinase interaction map for clinical kinase inhibitors” (Nat Biotechnol, 2005).
# How the values were obtained:
# [1] = biological target: Mitogen-activated protein kinase 14 (Homo sapiens, UniProt Q16539)
# [2] = biological target: Serine/threonine-protein kinase pim-2 (Homo sapiens, UniProt Q9P1W9)
# [3] = biological target: Cyclin-dependent kinase 5 (Homo sapiens, UniProt Q00535)
# [4] = biological target: Insulin receptor (Homo sapiens, UniProt P06213)
# [5] = biological target: Dual specificity protein kinase CLK4 (Homo sapiens, UniProt Q9HAZ1)
# Sequence of Dual specificity protein kinase CLK4 (Q9HAZ1 whole entry): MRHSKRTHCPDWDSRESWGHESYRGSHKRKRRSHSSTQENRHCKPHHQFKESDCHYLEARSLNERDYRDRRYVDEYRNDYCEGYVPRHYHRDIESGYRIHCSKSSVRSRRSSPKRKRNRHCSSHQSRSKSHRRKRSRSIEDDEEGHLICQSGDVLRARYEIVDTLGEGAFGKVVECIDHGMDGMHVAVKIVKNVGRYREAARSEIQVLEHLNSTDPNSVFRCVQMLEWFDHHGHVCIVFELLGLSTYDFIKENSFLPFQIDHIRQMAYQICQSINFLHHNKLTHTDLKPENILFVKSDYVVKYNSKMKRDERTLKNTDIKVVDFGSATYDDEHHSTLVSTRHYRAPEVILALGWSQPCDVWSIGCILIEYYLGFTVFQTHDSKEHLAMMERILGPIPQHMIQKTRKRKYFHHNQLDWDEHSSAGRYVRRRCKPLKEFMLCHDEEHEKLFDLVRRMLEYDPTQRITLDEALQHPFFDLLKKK
# [6] = biological target: Ephrin type-A receptor 7 (Homo sapiens, UniProt Q15375)
# Sequence of Ephrin type-A receptor 7 (Q15375 whole entry): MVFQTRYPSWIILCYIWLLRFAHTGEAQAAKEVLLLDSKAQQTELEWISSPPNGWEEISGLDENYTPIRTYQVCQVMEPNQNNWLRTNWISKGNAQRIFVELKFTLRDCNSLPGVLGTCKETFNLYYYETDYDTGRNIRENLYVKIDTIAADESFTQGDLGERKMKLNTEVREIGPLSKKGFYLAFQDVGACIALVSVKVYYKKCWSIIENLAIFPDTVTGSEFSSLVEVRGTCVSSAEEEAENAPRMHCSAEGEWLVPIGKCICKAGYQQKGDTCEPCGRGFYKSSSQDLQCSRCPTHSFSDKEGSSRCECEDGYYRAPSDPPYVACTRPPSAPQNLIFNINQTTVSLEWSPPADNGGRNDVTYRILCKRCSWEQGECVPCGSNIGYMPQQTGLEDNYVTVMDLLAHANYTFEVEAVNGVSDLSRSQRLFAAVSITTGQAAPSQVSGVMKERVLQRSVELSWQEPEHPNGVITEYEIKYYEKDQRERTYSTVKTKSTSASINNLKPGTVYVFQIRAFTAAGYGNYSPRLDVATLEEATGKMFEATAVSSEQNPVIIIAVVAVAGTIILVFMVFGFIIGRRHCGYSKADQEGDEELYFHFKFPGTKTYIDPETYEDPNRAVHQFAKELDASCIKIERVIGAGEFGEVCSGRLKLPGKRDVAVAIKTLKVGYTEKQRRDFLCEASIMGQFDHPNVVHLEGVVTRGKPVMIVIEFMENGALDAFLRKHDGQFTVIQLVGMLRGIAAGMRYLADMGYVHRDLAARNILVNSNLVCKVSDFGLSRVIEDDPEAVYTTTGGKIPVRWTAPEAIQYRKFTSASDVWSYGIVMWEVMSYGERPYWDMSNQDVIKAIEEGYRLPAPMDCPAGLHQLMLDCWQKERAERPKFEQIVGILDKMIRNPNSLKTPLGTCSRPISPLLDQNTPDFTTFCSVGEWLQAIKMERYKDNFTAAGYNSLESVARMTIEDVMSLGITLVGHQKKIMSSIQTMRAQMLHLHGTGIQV
# [7] = biological target: Dual specificity protein kinase CLK3 (Homo sapiens, UniProt P49761)
# [8] = biological target: Dual specificity protein kinase CLK2 (Homo sapiens, UniProt P49760)
# Sequence of Dual specificity protein kinase CLK2 (P49760 whole entry): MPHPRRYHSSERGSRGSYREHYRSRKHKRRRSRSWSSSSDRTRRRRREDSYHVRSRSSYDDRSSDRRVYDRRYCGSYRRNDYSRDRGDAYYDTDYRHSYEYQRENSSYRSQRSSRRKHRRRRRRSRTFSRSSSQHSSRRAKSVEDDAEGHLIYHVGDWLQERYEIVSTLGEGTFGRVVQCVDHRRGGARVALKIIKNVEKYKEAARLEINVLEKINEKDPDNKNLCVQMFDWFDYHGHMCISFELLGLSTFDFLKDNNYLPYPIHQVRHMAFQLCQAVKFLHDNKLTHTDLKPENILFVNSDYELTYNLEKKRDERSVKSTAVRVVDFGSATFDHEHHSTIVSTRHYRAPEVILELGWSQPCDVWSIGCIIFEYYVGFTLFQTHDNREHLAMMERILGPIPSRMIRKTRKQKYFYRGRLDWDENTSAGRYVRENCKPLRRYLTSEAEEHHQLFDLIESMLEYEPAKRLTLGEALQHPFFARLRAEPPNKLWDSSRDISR
# [9] = biological target: Ephrin type-A receptor 2 (Homo sapiens, UniProt P29317)
# [10] = biological target: T1, Phosphorylase b kinase gamma catalytic chain, liver/testis isoform (Homo sapiens, UniProt P15735)
# T1 sequence (P15735 whole entry): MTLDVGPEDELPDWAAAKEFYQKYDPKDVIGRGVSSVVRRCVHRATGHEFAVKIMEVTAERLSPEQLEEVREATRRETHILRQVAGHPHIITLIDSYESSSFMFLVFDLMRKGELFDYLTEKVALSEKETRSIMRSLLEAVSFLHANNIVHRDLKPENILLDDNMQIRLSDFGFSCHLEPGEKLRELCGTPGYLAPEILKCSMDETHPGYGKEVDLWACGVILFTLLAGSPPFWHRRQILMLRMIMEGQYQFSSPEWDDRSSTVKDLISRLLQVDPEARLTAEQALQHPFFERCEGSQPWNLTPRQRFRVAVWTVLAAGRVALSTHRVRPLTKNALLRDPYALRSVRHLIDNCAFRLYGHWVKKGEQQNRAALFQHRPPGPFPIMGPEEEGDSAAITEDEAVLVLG
# [11] = biological target: Tyrosine-protein kinase Fyn (Homo sapiens, UniProt P06241)
# Sequence of Tyrosine-protein kinase Fyn (P06241 whole entry): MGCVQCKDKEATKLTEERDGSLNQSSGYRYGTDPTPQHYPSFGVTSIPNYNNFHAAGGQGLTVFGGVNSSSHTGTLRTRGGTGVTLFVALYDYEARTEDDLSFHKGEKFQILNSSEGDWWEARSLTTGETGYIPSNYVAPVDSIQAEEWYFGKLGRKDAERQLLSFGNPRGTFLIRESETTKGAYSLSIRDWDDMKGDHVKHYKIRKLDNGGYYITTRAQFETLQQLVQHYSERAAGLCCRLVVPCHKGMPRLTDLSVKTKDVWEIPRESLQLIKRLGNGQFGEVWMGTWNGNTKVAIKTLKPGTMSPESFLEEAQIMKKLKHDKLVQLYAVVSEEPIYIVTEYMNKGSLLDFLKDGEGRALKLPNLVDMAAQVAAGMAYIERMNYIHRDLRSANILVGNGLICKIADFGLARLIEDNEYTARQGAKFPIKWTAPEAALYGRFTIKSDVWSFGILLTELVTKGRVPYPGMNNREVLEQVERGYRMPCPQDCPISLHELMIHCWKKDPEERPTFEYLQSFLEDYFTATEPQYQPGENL
# [12] = biological target: Calcium/calmodulin-dependent protein kinase type II subunit delta (Homo sapiens, UniProt Q13557)
# Sequence of Calcium/calmodulin-dependent protein kinase type II subunit delta (Q13557 whole entry, canonical isoform): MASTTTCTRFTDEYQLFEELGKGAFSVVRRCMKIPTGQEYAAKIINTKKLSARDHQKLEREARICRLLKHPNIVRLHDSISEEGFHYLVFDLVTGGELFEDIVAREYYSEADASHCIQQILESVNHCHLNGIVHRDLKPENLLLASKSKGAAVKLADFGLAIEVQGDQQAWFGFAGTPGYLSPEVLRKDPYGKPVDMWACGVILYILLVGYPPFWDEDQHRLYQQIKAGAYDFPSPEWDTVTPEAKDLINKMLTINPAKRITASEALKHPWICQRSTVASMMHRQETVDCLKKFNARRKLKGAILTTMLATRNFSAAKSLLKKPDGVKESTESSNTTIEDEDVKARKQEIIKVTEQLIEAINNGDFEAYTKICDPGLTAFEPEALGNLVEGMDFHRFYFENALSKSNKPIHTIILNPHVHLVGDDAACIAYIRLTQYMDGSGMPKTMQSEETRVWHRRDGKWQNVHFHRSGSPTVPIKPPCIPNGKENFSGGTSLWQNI
# [13] = biological target: Casein kinase I isoform epsilon (Homo sapiens, UniProt P49674)
# Sequence of Casein kinase I isoform epsilon (P49674 whole entry, canonical isoform): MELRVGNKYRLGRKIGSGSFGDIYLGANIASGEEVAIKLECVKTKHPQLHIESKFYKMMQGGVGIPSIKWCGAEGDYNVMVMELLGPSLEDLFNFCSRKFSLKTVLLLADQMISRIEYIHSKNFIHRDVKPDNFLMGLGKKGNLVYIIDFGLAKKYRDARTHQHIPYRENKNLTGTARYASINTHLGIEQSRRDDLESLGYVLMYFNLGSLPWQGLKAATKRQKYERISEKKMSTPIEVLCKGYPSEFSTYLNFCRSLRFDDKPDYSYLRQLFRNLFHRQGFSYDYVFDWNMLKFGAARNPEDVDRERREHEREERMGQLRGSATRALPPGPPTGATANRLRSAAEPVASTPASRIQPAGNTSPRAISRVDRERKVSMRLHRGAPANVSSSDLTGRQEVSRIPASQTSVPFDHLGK
# [14] = biological target: T2, Ephrin type-A receptor 6 (Homo sapiens, UniProt Q9UF33)
# T2 sequence (Q9UF33 whole entry): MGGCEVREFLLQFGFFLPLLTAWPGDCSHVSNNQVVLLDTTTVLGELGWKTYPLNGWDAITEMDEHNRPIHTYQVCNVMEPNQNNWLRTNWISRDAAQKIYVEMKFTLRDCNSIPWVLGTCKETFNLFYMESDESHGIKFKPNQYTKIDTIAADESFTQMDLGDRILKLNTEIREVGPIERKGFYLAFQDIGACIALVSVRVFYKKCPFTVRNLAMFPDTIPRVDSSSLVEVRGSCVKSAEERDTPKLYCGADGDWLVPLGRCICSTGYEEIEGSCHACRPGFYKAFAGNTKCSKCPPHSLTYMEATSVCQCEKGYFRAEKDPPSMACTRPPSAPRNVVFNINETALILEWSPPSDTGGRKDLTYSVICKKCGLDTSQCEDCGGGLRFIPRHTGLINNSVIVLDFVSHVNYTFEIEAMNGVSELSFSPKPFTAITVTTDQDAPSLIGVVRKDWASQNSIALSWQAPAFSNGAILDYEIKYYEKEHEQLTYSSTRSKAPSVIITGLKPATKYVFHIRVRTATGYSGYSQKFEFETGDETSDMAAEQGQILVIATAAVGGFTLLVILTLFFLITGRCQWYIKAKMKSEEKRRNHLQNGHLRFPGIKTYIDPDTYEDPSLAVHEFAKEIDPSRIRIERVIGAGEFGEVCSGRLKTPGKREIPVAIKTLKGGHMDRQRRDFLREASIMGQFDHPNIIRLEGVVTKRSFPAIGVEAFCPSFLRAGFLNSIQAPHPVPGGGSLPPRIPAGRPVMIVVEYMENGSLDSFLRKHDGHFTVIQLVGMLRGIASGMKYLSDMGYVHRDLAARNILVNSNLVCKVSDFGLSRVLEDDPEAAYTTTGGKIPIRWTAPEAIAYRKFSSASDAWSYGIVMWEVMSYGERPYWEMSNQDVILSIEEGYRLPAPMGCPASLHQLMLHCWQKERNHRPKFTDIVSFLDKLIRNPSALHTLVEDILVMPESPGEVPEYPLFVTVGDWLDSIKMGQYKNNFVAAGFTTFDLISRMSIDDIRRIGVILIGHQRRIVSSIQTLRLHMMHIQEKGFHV
# [15] = biological target: STE20-like serine/threonine-protein kinase (Homo sapiens, UniProt Q9H2G2)
# [16] = biological target: Proto-oncogene tyrosine-protein kinase Src (Homo sapiens, UniProt P12931)
# Sequence of Proto-oncogene tyrosine-protein kinase Src (P12931 2-536 limits assumed): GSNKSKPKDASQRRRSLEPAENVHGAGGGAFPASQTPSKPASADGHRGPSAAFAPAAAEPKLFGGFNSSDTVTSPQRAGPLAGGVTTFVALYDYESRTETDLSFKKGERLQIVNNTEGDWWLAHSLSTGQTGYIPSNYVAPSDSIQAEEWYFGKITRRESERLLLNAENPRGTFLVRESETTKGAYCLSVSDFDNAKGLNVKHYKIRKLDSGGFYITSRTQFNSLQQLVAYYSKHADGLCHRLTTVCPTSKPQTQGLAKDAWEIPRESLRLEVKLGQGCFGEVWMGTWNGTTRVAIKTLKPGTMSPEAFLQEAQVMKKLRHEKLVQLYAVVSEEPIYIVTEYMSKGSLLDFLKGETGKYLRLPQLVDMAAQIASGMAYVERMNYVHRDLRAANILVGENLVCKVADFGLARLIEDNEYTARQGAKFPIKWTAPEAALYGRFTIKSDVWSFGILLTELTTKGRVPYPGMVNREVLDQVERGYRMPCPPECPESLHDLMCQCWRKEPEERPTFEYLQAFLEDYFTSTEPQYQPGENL
# [17] = biological target: Tyrosine-protein kinase ABL1 (Homo sapiens, UniProt P00519, Y253F)
# Sequence of Serine/threonine-protein kinase pim-2 (Q9P1W9 whole entry): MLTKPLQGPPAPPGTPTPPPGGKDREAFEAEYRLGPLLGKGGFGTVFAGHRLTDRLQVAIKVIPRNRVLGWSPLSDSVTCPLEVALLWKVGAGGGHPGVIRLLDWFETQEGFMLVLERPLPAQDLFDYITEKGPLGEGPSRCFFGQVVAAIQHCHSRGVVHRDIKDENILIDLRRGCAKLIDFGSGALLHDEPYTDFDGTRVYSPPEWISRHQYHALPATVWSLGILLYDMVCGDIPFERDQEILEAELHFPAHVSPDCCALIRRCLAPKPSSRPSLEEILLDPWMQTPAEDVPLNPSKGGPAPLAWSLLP
# Sequence of Mitogen-activated protein kinase 14 (Q16539 whole entry): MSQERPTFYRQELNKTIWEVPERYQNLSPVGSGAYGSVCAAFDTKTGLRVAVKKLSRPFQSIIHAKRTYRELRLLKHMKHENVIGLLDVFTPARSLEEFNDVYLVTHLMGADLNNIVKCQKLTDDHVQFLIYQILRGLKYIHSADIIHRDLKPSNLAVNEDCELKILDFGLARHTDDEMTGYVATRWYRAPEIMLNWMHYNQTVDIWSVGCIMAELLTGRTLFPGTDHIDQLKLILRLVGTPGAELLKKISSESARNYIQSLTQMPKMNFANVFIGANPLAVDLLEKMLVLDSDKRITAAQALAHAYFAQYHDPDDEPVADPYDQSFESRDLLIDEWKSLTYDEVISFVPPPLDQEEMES
# Sequence of Cyclin-dependent kinase 5 (Q00535 whole entry): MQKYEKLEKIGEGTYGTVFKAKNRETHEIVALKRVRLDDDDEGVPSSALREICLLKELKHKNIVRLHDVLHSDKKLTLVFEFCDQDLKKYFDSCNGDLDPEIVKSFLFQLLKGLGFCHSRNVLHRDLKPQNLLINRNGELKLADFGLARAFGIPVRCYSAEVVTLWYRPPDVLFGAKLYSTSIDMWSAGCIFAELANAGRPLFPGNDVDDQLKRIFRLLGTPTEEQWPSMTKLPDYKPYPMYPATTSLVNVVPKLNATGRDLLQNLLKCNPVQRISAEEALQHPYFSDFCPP
SMILES,Kd [1],Kd [2],Kd [3],Kd [4],Kd [5],Kd [6],Kd [7],Kd [8],Kd [9],Kd [10],Kd [11],Kd [12],Kd [13],Kd [14],Kd [15],Kd ([16]; read-out: Kd) [nM],Kd [17],Kd [16]
C#Cc1cccc(Nc2ncnc3cc(OCCOC)c(OCCOC)cc23)c1 [ERLOTINIB],Not Active,Not Active,Not Active,Not Active,Not Active,Not Active,Not Active,Not Active,Not Active,Not Active,Not Active,Not Active,Not Active,–,–,–,–,–
Cc1ccc(NC(=O)c2ccc(CN3CCN(C)CC3)cc2)cc1Nc1nccc(-c2cccnc2)n1 [IMATINIB],–,Not Active,Not Active,Not Active,–,Not Active,–,–,Not Active,Not Active,–,Not Active,Not Active,Not Active,Not Active,–,–,–
O=c1ncn2nc(Sc3ccc(F)cc3F)ccc2c1-c1c(Cl)cccc1Cl [NEFLAMAPIMOD],–,Not Active,Not Active,Not Active,Not Active,Not Active,Not Active,Not Active,–,Not Active,Not Active,Not Active,Not Active,Not Active,Not Active,–,–,–
CCOc1cc2ncc(C#N)c(Nc3ccc(F)c(Cl)c3)c2cc1NC(=O)/C=C/CN(C)C [PELITINIB],Not Active,Not Active,Not Active,Not Active,–,Not Active,–,–,Not Active,–,–,Not Active,–,–,–,120,–,–
Oc1ccc(-c2nc(-c3ccc(F)cc3)c(-c3ccncc3)[nH]2)cc1 [SB-202190],–,Not Active,Not Active,Not Active,Not Active,Not Active,Not Active,Not Active,Not Active,Not Active,Not Active,Not Active,–,Not Active,Not Active,–,Not Active,Not Active
C[S+]([O-])c1ccc(-c2nc(-c3ccc(F)cc3)c(-c3ccncc3)[nH]2)cc1 (stereo not given) [SB-203580],–,Not Active,Not Active,Not Active,Not Active,Not Active,Not Active,Not Active,Not Active,Not Active,Not Active,Not Active,–,Not Active,–,–,Not Active,Not Active
CC[C@H](CO)Nc1nc(NCc2ccccc2)c2ncn(C(C)C)c2n1 [SELICICLIB],Not Active,Not Active,–,Not Active,–,Not Active,Not Active,–,Not Active,Not Active,Not Active,Not Active,–,Not Active,Not Active,–,Not Active,Not Active
Oc1c2ccccc2c2c3c(cccc13)N=N2 [SP-600125],Not Active,–,–,Not Active,–,Not Active,Not Active,–,Not Active,–,Not Active,Not Active,–,Not Active,–,–,Not Active,Not Active
COc1cc2c(N3CCN(C(=O)Nc4ccc(OC(C)C)cc4)CC3)ncnc2cc1OCCCN1CCCCC1 [TANDUTINIB],Not Active,Not Active,Not Active,Not Active,Not Active,Not Active,–,–,Not Active,Not Active,Not Active,Not Active,Not Active,Not Active,–,–,Not Active,Not Active
